Reference: US20130116219A1, “ANTIMICROBIAL CARBOLINE COMPOUNDS” (ALCON RESEARCH, LTD., priority 2011, published 2013)

Tested on: Ad5
Assay: Ad5 genome replication assay (cell-based QPCR) in A549 cells
Conditions: Human adenovirus sp., A549, 72 h, read-out: Ad5 qPCR EC50 (μM)
Description: Compounds of the present invention were tested for potency against Ad5 in an Ad5 genome replication assay, a cell-based QPCR assay of Ad5 genome replication in A549 cells, a human lung carcinoma cell line. Serotype of human Ad5, used in this replication assay can also replicate in a NZW rabbit model of adenoviral ocular keratitis.
EC50 values (μM) for inhibition of adenoviral replication were determined by QPCR. Briefly, 10,000 cultured A549 cells were inoculated with 25,000 pfu/well for 3 hrs in 2% FBS F12-K A549 culture media. Following inoculation, A549 cells were treated with log unit dilutions of compound of Formula I (˜10 μM thru˜10 pM) in 10% FBS F12-K culture media with 0.3% DMSO for an additional 3 days. Cell viability was assessed with Alamar Blue (10 μl/well for 2 hrs; fluorescence Ex353; Em595 nm). Plates were washed 3 times with 125 μl PBS, cell lysates were prepared for QPCR analysis using Cells to SNP kit (Life Technologies). Ad5 genome levels per cell were determined with RNaseP and Ad5 hexon Taqman Assays (Life Technologies). EC50, the concentration that inhibited Ad5 genome replication formation by 50%, was estimated from plots of Ad5 genomes/cell vs. compound concentration.

| Structure (SMILES) | EC50 |
| --- | --- |
| CC(C)CC1c2[nH]c3ccc(Cl)cc3c2CCN1C(=O)OCCN1CCC(F)(F)CC1 (stereo not drawn) [Compound 14] | 0.1 to 1 µM |
| Cc1ccc(C2c3[nH]c4ccc(Cl)cc4c3CCN2C(=O)CCN2CCC(F)(F)CC2)cc1 (stereo not drawn) [Compound 4] | 0.1 to 1 µM |
| CC(C)CC1c2[nH]c3ccc(Cl)cc3c2CCN1C(=O)CN1CCC(F)(F)CC1 (stereo not drawn) [Compound 7] | 0.1 to 1 µM |
| CC(C)CC1c2[nH]c3ccc(Cl)cc3c2CCN1C(=O)CC1CCN(C2CC2)CC1 (stereo not drawn) [Compound 75] | 0.1 to 1 µM |
| CC(C)CC1c2[nH]c3ccc(Cl)cc3c2CCN1C(=O)CCc1ccccc1 (stereo not drawn) [Compound 1] | 0.1 to 1 µM |
| CC(C)CC1c2[nH]c3ccc(Cl)cc3c2CCN1C(=O)CCN1CCOCC1 (stereo not drawn) [Compound 2] | > 1 µM |
| CC(C)CC1c2[nH]c3ccc(Cl)cc3c2CCN1C(=O)C1CN(CC2CC2(F)F)C1 (stereo not drawn) [Compound 107] | > 1 µM |
| CC(C)CC1c2[nH]c3ccc(Cl)cc3c2CCN1C(=O)c1ccccn1 (stereo not drawn) [Compound 52] | 0.1 to 1 µM |
| CC(C)CC1c2[nH]c3ccc(Cl)cc3c2CCN1C(=O)CCc1ccc(O)cc1 (stereo not drawn) [Compound 72] | > 1 µM |
| CC(C)(C)CC1c2[nH]c3ccc(Cl)cc3c2CCN1C(=O)CCN1CCC(C(F)F)CC1 (stereo not drawn) [Compound 32] | > 1 µM |
| CC(C)CC1c2[nH]c3ccc(Cl)cc3c2CCN1C(=O)C1(C#N)CC1 (stereo not drawn) [Compound 25] | > 1 µM |
| CC(C)CC1c2[nH]c3ccc(Cl)cc3c2CCN1C(=O)c1ccccc1 (stereo not drawn) [Compound 62] | 0.1 to 1 µM |
| CC(C)CC1c2[nH]c3ccc(Cl)cc3c2CCN1C(=O)C1(F)CNC1 (stereo not drawn) [Compound 102] | 0.1 to 1 µM |
| CC(C)CC1c2[nH]c3ccc(Cl)cc3c2CCN1C(=O)CCN1CCSCC1 (stereo not drawn) [Compound 19] | 0.1 to 1 µM |
| CC(C)C[C@H]1c2[nH]c3ccc(Cl)cc3c2CCN1C(=O)CNC1CCC(F)(F)CC1 [Compound 94, (S)-1-(6-chloro-1-isobutyl-3,4-dihydro-1H-pyrido[3,4-b]indol-2(9H)-yl)-2-((4,4-difluorocyclohexyl)amino)ethanone] | < 0.1 µM |
| CC(C)CC1c2[nH]c3ccc(Cl)cc3c2CCN1C(=O)[C@@H](N)Cc1ccccc1 (stereo partly drawn) [Compound 76] | > 1 µM |
| CC(C)CC1c2[nH]c3ccc(Cl)cc3c2CCN1CCN1CC[C@H](F)C1 (stereo partly drawn) [Compound 101] | > 1 µM |
| CC(C)CC1c2[nH]c3ccc(Br)cc3c2CCN1C(=O)CCN1CCC(F)(F)CC1 (stereo not drawn) [Compound 45] | < 0.1 µM |
| CC(C)CC1c2[nH]c3ccc(Cl)cc3c2CCN1C(=O)OCCN1CCC(CF)CC1 (stereo not drawn) [Compound 24] | > 1 µM |
| CC(C)CC1c2[nH]c3ccc(Cl)cc3c2CCN1C(=O)Cc1ccccc1 (stereo not drawn) [Compound 63] | 0.1 to 1 µM |
| CC(C)CC1c2[nH]c3ccc(Cl)cc3c2CCN1C(=O)CNCc1ccno1 (stereo not drawn) [Compound 90] | > 1 µM |
